Consider eight compounds from patent US20250051355A1, “COMPOUNDS, COMPOSITIONS, AND METHODS” (ACONCAGUA BIO, INC., priority 2023, published 2025).

Each structure is given as a SMILES string.

In experiment [1] the target is T1, human calcitonin receptor (CTR) (Homo sapiens, UniProt P30988).
T1 construct: expressed in transfected cells; host or cells: COS-7 (COS7-human CTR Clone #2)
T1 sequence (P30988 25-474): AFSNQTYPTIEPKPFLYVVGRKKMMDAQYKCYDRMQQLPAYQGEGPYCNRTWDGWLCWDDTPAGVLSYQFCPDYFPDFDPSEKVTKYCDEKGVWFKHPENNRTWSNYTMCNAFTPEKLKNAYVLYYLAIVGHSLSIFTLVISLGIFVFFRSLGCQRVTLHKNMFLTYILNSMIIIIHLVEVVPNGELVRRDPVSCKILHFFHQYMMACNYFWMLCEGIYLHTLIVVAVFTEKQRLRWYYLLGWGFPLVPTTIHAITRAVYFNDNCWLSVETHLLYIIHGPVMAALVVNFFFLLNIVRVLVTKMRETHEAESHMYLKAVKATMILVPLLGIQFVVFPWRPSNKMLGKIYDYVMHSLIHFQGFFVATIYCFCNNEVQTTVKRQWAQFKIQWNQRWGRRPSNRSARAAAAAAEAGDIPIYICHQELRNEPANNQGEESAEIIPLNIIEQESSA
Briefly: Calcitonin receptor (CTR) cAMP Assay. Type of experiment: cell-based. The settings on record: COS7-human CTR Clone #2 cells, cAMP dynamic 2 kit; read-out: Calcitonin Receptor cAMP Stimulation Activity: EC50. From the text:
Calcitonin receptor (CTR) cAMPAssay
The calcitonin receptor (CTR) belongs to the subfamily of GPCRs known as the secretin or ‘B’ family of GPCRs. Like other class B1 GPCRs, the CT receptor family is canonically coupled to Gs-mediated cAMP production, and measurement of cAMP accumulation has been the primary assay used to determine peptide selectivity and potency.
(§1) To optimize functional activity directed toward Gas coupling, COS-7 cells were stably transfected with human calcitonin receptor (CTR) to create COS7-human CTR Clone #2 stable cell line. 100× concentration of compound working solutions were prepared with 4-fold serial dilution in 384-well Echo LDV plate (Labcyte, Cat #LP-0200-BC). 200 nL/well 100×concentration of compound working solutions were moved to 384-well white microplate (Perkin Elmer, Cat #6007680) using Labcyte ECHO550. […] cells/mL COS7-human CTR Clone #2 cell suspensions prepared with assay buffer [HBSS containing 20 mM HEPES (Gibco, Cat #15630-080), 0.5 mM IBMX (Sigma, Cat #15879) and 0.1% Casein (Sigma, Cat #C4765)], 20 μL cell suspensions were added to each well of previous generated assay plate which already contains 200 nL compound at 100×concentration using ThermoFisher Multidrop Combi (2000 cells/well). Seal the plate and incubate at 37° C. with 5% CO2 for 30 min.
After incubation, the cAMP assay signal was generated using cAMP dynamic 2 kit (Revvity, Cat #62AM4PEC). […] cAMP-d2 working solution was added to each well, followed by 10 μL Anti-cAMP antibody-cryptate working solution which was added to each well using CERTUS FLEX LIQUID DISPENSER The samples were then incubated at room temperature for 1 hour protected from light. the fluorescence was read at 665 and 615 nm with Reader PerkinElmer EnVision 2105.

Experiment [2] addresses human calcitonin receptor (CTR) and RAMP3 (AMY3) (Homo sapiens, UniProt O60896+P30988). Briefly: Amylin Receptor cAMP Assay II. The settings on record: COS-7/AMY3 cells, cAMP dynamic 2 kit, read-out: Amylin Receptor cAMP Stimulation Activity: EC50. It is filed as cell-based.
Source text: Amylin Receptor cAMPAssay II
AMYRs are heterodimers of the class B calcitonin (CT) G-protein-coupled receptor (CTR) and receptor activity-modifying proteins (RAMPs). All three RAMPs can interact with the CTR and form AMY1, AMY2, AMY3 with RAMP1, RAMP2 and RAMP3, respectively. Like other class B1 GPCRs, the CT receptor family is canonically coupled to Gs-mediated cAMP production, and measurement of cAMP accumulation has been the primary assay used to determine peptide selectivity and potency.
as §1, with “and RAMP3, simultaneously. 100×concentration” for “to create COS7-human CTR Clone #2 stable cell line. 100× concentration”, “COS-7/AMY3” for “COS7-human CTR Clone #2”
After incubation, the cAMP assay signal was generated using cAMP dynamic 2 kit (Revvity, Cat #62AM4PEC). 10 μL cAMP-d2 working solution was added to each well, followed by 10 μL Anti-cAMP antibody-cryptate working solution which was added to each well using CERTUS FLEX LIQUID DISPENSER The samples were then incubated at room temperature for 1 hour protected from light. the fluorescence was read at 665 and 615 nm with Reader PerkinElmer EnVision 2105.

human calcitonin receptor (CTR) and RAMP3 (AMY3), sequence (O60896 24-148, one chain of several): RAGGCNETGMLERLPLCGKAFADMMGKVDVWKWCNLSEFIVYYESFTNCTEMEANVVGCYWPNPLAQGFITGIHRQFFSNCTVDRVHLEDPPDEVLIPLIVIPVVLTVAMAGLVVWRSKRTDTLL

As to `Cc1noc(-c2c(CCC3CCOCC3)nc3c(c2-c2cc4ccnc(N[C@@H]5CCc6ncccc65)c4s2)S(=O)(=O)CC3C(C)C)n1` (stereo partly drawn) [Compound 102, N—(R)-4-aza-1-indanyl(2-(3-isopropyl-6-(3-methyl-1,2,4-oxadiazol-5-yl)-1,1-dioxo-5-[2-(tetrahydro-2H-pyran-4-yl)ethyl]-1λ^6-thia-4-aza-7-indanyl}-1-thia-6-aza-7-indenyl)amine], the EC50 in experiment [1] stood at 50 nM; in experiment [2], 265 nM.
Taken in the same sequence, the figures for `Cc1nnc(-c2c(CCC3CCOCC3)nc3c(c2-c2cc4ncnc(N[C@@H]5CCc6ncccc65)c4s2)S(=O)(=O)CC3C2CC2)o1` (stereo partly drawn) [Compound 103, N—(R)-4-aza-1-indanyl(2-(3-cyclopropyl-6-(5-methyl-1,3,4-oxadiazol-2-yl)-1,1-dioxo-5-[2-(tetrahydro-2H-pyran-4-yl)ethyl]-1λ^6-thia-4-aza-7-indanyl}-1-thia-4,6-diaza-7-indenyl)amine] were 45.9 nM and 1190 nM.
The matching figures for `Cc1nnc(-c2c(CCC3CCOCC3)nc3c(c2-c2ccc4c(c2)oc(=O)n4Cc2ccc(C#N)c(F)c2)C(=O)N2CCOC[C@@H]32)o1` [Compound 104, 4-[(6-((4aR)-7-(5-methyl-1,3,4-oxadiazol-2-yl)-9-oxo-6-[2-(tetrahydro-2H-pyran-4-yl)ethyl]-1,2,4,4a-tetrahydro-9H-3-oxa-5,9a-diazafluoren-8-yl}-2-oxo-1,3-benzoxazol-3-yl)methyl]-2-fluorobenzonitrile]: 1.25 nM and 42.4 nM.
Taken in the same sequence, the figures for `Cc1nnc(-c2c(CCC3CCOCC3)nc3c(c2-c2ccc4c(cnn4Cc4ccc(C#N)c(F)c4)c2)C(=O)N2CCOC[C@@H]32)o1` [Compound 105, 4-[(5-((4aR)-7-(5-methyl-1,3,4-oxadiazol-2-yl)-9-oxo-6-[2-(tetrahydro-2H-pyran-4-yl)ethyl]-1,2,4,4a-tetrahydro-9H-3-oxa-5,9a-diazafluoren-8-yl}-1H-indazol-1-yl)methyl]-2-fluorobenzonitrile] were 9.56 nM and 385 nM.
On to `Cc1nnc(-c2c(CCC3CCOCC3)nc3c(c2C2CCN(C(=O)Cc4ccc(F)c(F)c4)CC2)S(=O)(=O)CC3C(C)C)o1` (stereo not shown) [Compound 106, 7-{1-[2-(3,4-difluorophenyl)acetyl]-4-piperidyl}-3-isopropyl-6-(5-methyl-1,3,4-oadiazol-2-yl)-5-[2-(tetrahydro-2H-pyran-4-yl)ethyl]-1λ^6-thia-4-aza-1,1-indandione], for which the figures for the EC50 in experiment [1] and in experiment [2] were 3230 nM and above 100 nM, respectively.
The matching figures for `Cc1nnc(-c2c(CCC3CCOCC3)nc3c(c2C2CCN(C(=O)Cc4ccc(F)c(F)c4)C2)S(=O)(=O)CC3C(C)C)o1` (stereo not shown) [Compound 107, 7-{1-[2-(3,4-difluorophenyl)acetyl]-3-pyrrolidinyl}-3-isopropyl-6-(5-methyl-1,3,4-oxadiazol-2-yl)-5-[2-(tetrahydro-2H-pyran-4-yl)ethyl]-1D′-thia-4-aza-1,1-indandione]: 6580 nM and above 100 nM.
Consider `Cc1nnc(-c2c(CCC3CCOC(C)(C)C3)nc3c(c2-c2cc4ncnc(N[C@@H]5CCc6ncccc65)c4s2)S(=O)(=O)CC3C(C)C)o1` (stereo partly drawn) [Compound 108, N—(R)-4-aza-1-indanyl(2-(5-[2-(2,2-dimethyltetrahydro-2H-pyran-4-yl)ethyl]-3-isopropyl-6-(5-methyl-1,3,4-oxadiazol-2-yl)-1,1-dioxo-1λ^6-thia-4-aza-7-indanyl}-1-thia-4,6-diaza-7-indenyl)amine], for which the EC50 in experiment [1] came out at 42.1 nM; in experiment [2] it was 462 nM.
As for `Cc1nnc(-c2c(CCC3CCOCC3)nc3c(c2-c2ccc4c(c2)oc(=O)n4Cc2ccc(C#N)c(F)c2)S(=O)(=O)CC3C(C)C)o1` (stereo not shown) [Compound 109, 2-fluoro-4-[(6-(3-isopropyl-6-(5-methyl-1,3,4-oxadiazol-2-yl)-1,1-dioxo-5-[2-(tetrahydro-2H-pyran-4-yl)ethyl]-1λ^6-thia-4-aza-7-indanyl}-2-oxo-1,3-benzoxazol-3-yl)methyl]benzonitrile], the EC50 in experiment [1] was 1.51 nM; in experiment [2], 64.8 nM.
